± gives the standard deviation of the averaged measurements.
What was measured:
ABT-737 = compound: CN(C)CC[C@H](CSc1ccccc1)Nc1ccc(S(=O)(=O)NC(=O)c2ccc(N3CCN(Cc4ccccc4-c4ccc(Cl)cc4)CC3)cc2)cc1[N+](=O)[O-] [ABT-737]; assay: surviving fraction relative to DMSO-only wells; higher = less growth inhibition; conditions: exposure time: 5 days
Summary of the method: (§1)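 Surviving fraction is CellTiter-Glo luminescence divided by the median of wells given DMSO only. For this, log-phase tumour cell lines went into 384-well plates at 250–500 cells per well and, 24 hours later, into five days of continuous inhibitor exposure at 0.5, 1, 5, 10, 50, 100, 500 and 1000 nM. Lines were screened three times and retained only if replicate Pearson r >0.7 and median Z' >0.3.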

2-METHOXYESTRADIOL = compound: COc1cc2c(cc1O)CC[C@@H]1[C@@H]2CC[C@]2(C)[C@@H](O)CC[C@@H]12 [2-METHOXYESTRADIOL]; assay: as above; conditions: exposure time: 5 days
Summary of the method: as §1

Test System | surviving fraction (ABT-737; 0.5 nM) | surviving fraction (ABT-737; 1 nM) | surviving fraction (ABT-737; 5 nM) | surviving fraction (ABT-737; 10 nM) | surviving fraction (ABT-737; 50 nM) | surviving fraction (ABT-737; 100 nM) | surviving fraction (ABT-737; 500 nM) | surviving fraction (ABT-737; 1000 nM) | surviving fraction (2-METHOXYESTRADIOL; 0.5 nM) | surviving fraction (2-METHOXYESTRADIOL; 1 nM) | surviving fraction (2-METHOXYESTRADIOL; 5 nM) | surviving fraction (2-METHOXYESTRADIOL; 10 nM) | surviving fraction (2-METHOXYESTRADIOL; 50 nM) | surviving fraction (2-METHOXYESTRADIOL; 100 nM) | surviving fraction (2-METHOXYESTRADIOL; 500 nM) | surviving fraction (2-METHOXYESTRADIOL; 1000 nM)
HCC1395 BREAST | 1.15 ± 0.075 | 1.14 ± 0.053 | 1.27 ± 0.047 | 1.25 ± 0.061 | 1.19 ± 0.024 | 1.32 ± 0.033 | 1.12 ± 0.069 | 1.1 ± 0.065 | 0.926 ± 0.081 | 1.15 ± 0.08 | 1.14 ± 0.035 | 1.25 ± 0.085 | 1.24 ± 0.027 | 1.22 ± 0.072 | 1.17 ± 0.083 | 0.907 ± 0.088
HCC1806 BREAST | 1.06 ± 0.057 | 1.02 ± 0.15 | 1.16 ± 0.081 | 1.207 ± 0.008 | 1.17 ± 0.11 | 1.16 ± 0.067 | 1.05 ± 0.074 | 1.13 ± 0.04 | 0.946 ± 0.076 | 1.02 ± 0.052 | 1.03 ± 0.083 | 1.11 ± 0.052 | 1.06 ± 0.053 | 1.15 ± 0.079 | 1.06 ± 0.11 | 0.808 ± 0.036
HCC1954 BREAST | 1.09 ± 0.11 | 1.02 ± 0.092 | 1.21 ± 0.047 | 1.25 ± 0.033 | 0.878 ± 0.17 | 0.917 ± 0.26 | 0.674 ± 0.15 | 0.564 ± 0.092 | 0.93 ± 0.027 | 1.09 ± 0.072 | 1.049 ± 0.0014 | 1.05 ± 0.12 | 0.845 ± 0.019 | 0.742 ± 0.1 | 0.716 ± 0.034 | 0.515 ± 0.029
HCT15 LARGE INTESTINE | 1.02 ± 0.1 | 1.02 ± 0.14 | 1.02 ± 0.12 | 1.02 ± 0.17 | 1.1 ± 0.073 | 1.08 ± 0.094 | 1.03 ± 0.11 | 1.09 ± 0.029 | 0.947 ± 0.027 | 0.926 ± 0.028 | 0.959 ± 0.057 | 0.914 ± 0.04 | 1.01 ± 0.021 | 0.929 ± 0.1 | 0.0957 ± 0.014 | 0.0547 ± 0.0085
HELA CERVIX | 1.05 ± 0.04 | 1.05 ± 0.04 | 1.06 ± 0.017 | 1.06 ± 0.047 | 1.14 ± 0.085 | 1.11 ± 0.084 | 1.2 ± 0.13 | 1.16 ± 0.07 | 0.982 ± 0.043 | 1 ± 0.031 | 0.985 ± 0.013 | 0.938 ± 0.04 | 1.06 ± 0.064 | 1.11 ± 0.077 | 0.593 ± 0.045 | 0.0965 ± 0.0045
HOS BONE | 1.01 ± 0.028 | 1.03 ± 0.013 | 1.03 ± 0.026 | 1.03 ± 0.02 | 1.06 ± 0.016 | 1.084 ± 0.0046 | 1.08 ± 0.046 | 1.03 ± 0.021 | 0.996 ± 0.013 | 0.992 ± 0.029 | 1.02 ± 0.02 | 1.004 ± 0.0095 | 1.04 ± 0.015 | 1.05 ± 0.025 | 0.96 ± 0.02 | 0.158 ± 0.011
HOSMNG BONE | 0.879 ± 0.057 | 0.942 ± 0.099 | 0.888 ± 0.06 | 0.893 ± 0.073 | 0.928 ± 0.072 | 1 ± 0.075 | 0.921 ± 0.12 | 0.944 ± 0.11 | 0.97 ± 0.12 | 0.966 ± 0.034 | 0.957 ± 0.1 | 1 ± 0.046 | 1.05 ± 0.11 | 1.03 ± 0.084 | 0.652 ± 0.053 | 0.168 ± 0.011
HSSYII SYNOVIAL | 1.03 ± 0.064 | 0.999 ± 0.044 | 0.99 ± 0.043 | 0.972 ± 0.045 | 1.12 ± 0.054 | 0.859 ± 0.041 | 0.637 ± 0.017 | 0.54 ± 0.079 | 0.901 ± 0.024 | 0.926 ± 0.01 | 0.923 ± 0.043 | 0.997 ± 0.046 | 0.915 ± 0.018 | 0.764 ± 0.013 | 0.139 ± 0.0043 | 0.0593 ± 0.0049
HT1080 SOFT TISSUE | 1.06 ± 0.045 | 1.06 ± 0.018 | 1.05 ± 0.022 | 1.07 ± 0.045 | 1 ± 0.028 | 1.05 ± 0.029 | 1.01 ± 0.032 | 1.02 ± 0.028 | 1.01 ± 0.011 | 1.02 ± 0.018 | 1.05 ± 0.016 | 0.987 ± 0.058 | 1.01 ± 0.043 | 0.999 ± 0.033 | 0.756 ± 0.049 | 0.313 ± 0.028
HU09 BONE | 1.08 ± 0.08 | 1.07 ± 0.12 | 1.1 ± 0.0064 | 1.06 ± 0.065 | 0.988 ± 0.063 | 0.912 ± 0.08 | 0.697 ± 0.031 | 0.617 ± 0.027 | 1.02 ± 0.055 | 0.959 ± 0.03 | 1.02 ± 0.024 | 1.1 ± 0.1 | 1.12 ± 0.081 | 1.08 ± 0.095 | 0.512 ± 0.015 | 0.159 ± 0.029
HUO3N1 BONE | 1.03 ± 0.027 | 1.07 ± 0.012 | 1.1 ± 0.041 | 1.1 ± 0.035 | 1.09 ± 0.074 | 1.05 ± 0.039 | 0.994 ± 0.064 | 0.943 ± 0.02 | 1.01 ± 0.012 | 0.994 ± 0.037 | 1.05 ± 0.05 | 1.03 ± 0.057 | 1.07 ± 0.022 | 1.02 ± 0.041 | 0.87 ± 0.059 | 0.537 ± 0.03
JIMT1 BREAST | 1.02 ± 0.048 | 1.05 ± 0.016 | 1.019 ± 0.0045 | 1.018 ± 0.0065 | 1.04 ± 0.037 | 1.07 ± 0.06 | 1.06 ± 0.054 | 1.08 ± 0.032 | 0.985 ± 0.032 | 1.04 ± 0.029 | 1.03 ± 0.023 | 1 ± 0.031 | 1.09 ± 0.013 | 1.05 ± 0.021 | 0.762 ± 0.053 | 0.403 ± 0.045
JURKAT HAEMATOPOIETIC AND LYMPHOID TISSUE | 1.04 ± 0.026 | 1.04 ± 0.029 | 1.05 ± 0.024 | 1.02 ± 0.028 | 0.949 ± 0.025 | 0.932 ± 0.035 | 0.752 ± 0.041 | 0.549 ± 0.0064 | 1.08 ± 0.021 | 1.08 ± 0.014 | 1.03 ± 0.005 | 1.02 ± 0.033 | 1.02 ± 0.032 | 0.993 ± 0.016 | 0.043 ± 0.001 | 0.042 ± 0.001
KPD BONE | 1.06 ± 0.038 | 1.02 ± 0.049 | 1.11 ± 0.03 | 1.13 ± 0.069 | 1.07 ± 0.017 | 1.12 ± 0.21 | 0.839 ± 0.023 | 0.691 ± 0.042 | 0.992 ± 0.043 | 0.964 ± 0.04 | 1.02 ± 0.066 | 1.03 ± 0.014 | 1.08 ± 0.031 | 1.07 ± 0.024 | 0.784 ± 0.047 | 0.551 ± 0.026
LM7 BONE | 0.97 ± 0.065 | 1.03 ± 0.09 | 1.11 ± 0.04 | 1.1 ± 0.096 | 1.08 ± 0.061 | 1.13 ± 0.057 | 0.921 ± 0.095 | 0.905 ± 0.043 | 0.969 ± 0.063 | 1.03 ± 0.016 | 1.06 ± 0.022 | 1.01 ± 0.056 | 1.12 ± 0.077 | 1.03 ± 0.13 | 0.5347 ± 0.0023 | 0.264 ± 0.024
LNCAP PROSTATE | 0.971 ± 0.034 | 0.971 ± 0.041 | 0.932 ± 0.065 | 0.882 ± 0.025 | 0.973 ± 0.035 | 0.932 ± 0.04 | 0.914 ± 0.05 | 0.856 ± 0.1 | 1.01 ± 0.039 | 0.922 ± 0.039 | 0.975 ± 0.094 | 0.901 ± 0.092 | 0.884 ± 0.13 | 0.809 ± 0.091 | 0.681 ± 0.033 | 0.208 ± 0.0072
MCF7 BREAST | 0.9422 ± 0.0083 | 0.957 ± 0.048 | 0.993 ± 0.02 | 1 ± 0.039 | 1.02 ± 0.052 | 1.02 ± 0.044 | 0.985 ± 0.02 | 1 ± 0.022 | 0.846 ± 0.015 | 0.837 ± 0.017 | 0.857 ± 0.0097 | 0.8506 ± 0.0053 | 0.903 ± 0.027 | 0.924 ± 0.083 | 0.943 ± 0.048 | 0.685 ± 0.086
MDAMB134 BREAST | 1.1 ± 0.12 | 0.848 ± 0.18 | 0.786 ± 0.071 | 0.831 ± 0.016 | 0.908 ± 0.096 | 0.914 ± 0.063 | 0.764 ± 0.04 | 0.471 ± 0.033 | 0.832 ± 0.24 | 0.884 ± 0.12 | 0.777 ± 0.041 | 0.916 ± 0.18 | 0.755 ± 0.097 | 0.717 ± 0.12 | 0.56 ± 0.0085 | 0.619 ± 0.15
MDAMB157 BREAST | 1.02 ± 0.026 | 0.995 ± 0.13 | 0.952 ± 0.069 | 0.964 ± 0.062 | 1.01 ± 0.032 | 1.01 ± 0.057 | 0.938 ± 0.028 | 0.893 ± 0.059 | 0.873 ± 0.086 | 0.947 ± 0.022 | 0.935 ± 0.05 | 0.983 ± 0.12 | 0.959 ± 0.012 | 0.932 ± 0.013 | 0.76 ± 0.055 | 0.31 ± 0.066
MDAMB231 BREAST | 1 ± 0.031 | 0.99 ± 0.018 | 1.01 ± 0.014 | 1.01 ± 0.018 | 1.02 ± 0.041 | 1.01 ± 0.03 | 1 ± 0.018 | 0.941 ± 0.02 | 0.964 ± 0.0098 | 0.949 ± 0.011 | 0.9675 ± 0.0069 | 0.963 ± 0.018 | 0.983 ± 0.027 | 0.989 ± 0.027 | 0.545 ± 0.025 | 0.258 ± 0.012
MDAMB361 BREAST | 0.853 ± 0.098 | 0.812 ± 0.15 | 0.815 ± 0.058 | 0.921 ± 0.11 | 0.871 ± 0.032 | 0.909 ± 0.085 | 0.843 ± 0.055 | 0.846 ± 0.086 | 0.843 ± 0.082 | 0.827 ± 0.11 | 0.865 ± 0.046 | 0.829 ± 0.11 | 0.788 ± 0.043 | 0.8 ± 0.083 | 0.666 ± 0.014 | 0.701 ± 0.081
